Measured values published in PubChem BioAssay AID316 (DTP/NCI, 2004).
Where “and” joins values, the source holds several entries; their conditions need not be identical. Identical values can stand only once. Inconclusive results and toxic doses are left out.

Test system: P1534 leukemia ip, CD2F1 mice, survival T/C
Assay: NCI In Vivo Anticancer Drug Screen. Data for tumor model P1534 Leukemia (intraperitoneal) in CD2F1 (CDF1) mice
Settings: higher = longer survival
Method: The antitumor activity of compounds was measured in mice bearing transplantable tumors. Survival or tumor size were measured and the results are expressed as the measurement made in the treated group (T) divided by the measurement made in the vehicle treated control group (C). The tumor model used in this assay is P1534 Leukemia (intraperitoneal) in CD2F1 (CDF1) mice

[1] = endpoint: mean survival time, dose: 50.0 mg/kg/injection, schedule: Q01DX010 (ip), vehicle: saline
[2] = endpoint: mean survival time, dose: 100.0 mg/kg/injection, schedule: Q01DX010 (ip), vehicle: saline
[3] = endpoint: mean survival time, dose: 200.0 mg/kg/injection, schedule: Q01DX010 (ip), vehicle: saline
[4] = endpoint: mean survival time, dose: 400.0 mg/kg/injection, schedule: Q01DX010 (ip), vehicle: saline
[5] = endpoint: mean survival time, dose: 25.0 mg/kg/injection, schedule: Q01DX010 (ip), vehicle: saline
[6] = endpoint: mean survival time, dose: 15.6 mg/kg/injection, schedule: Q01DX010 (ip), vehicle: saline
[7] = endpoint: mean survival time, dose: 31.3 mg/kg/injection, schedule: Q01DX010 (ip), vehicle: saline
[8] = endpoint: mean survival time, dose: 62.5 mg/kg/injection, schedule: Q01DX010 (ip), vehicle: saline

SMILES: CC[C@]1(O)C[C@H]2CN(CCc3c([nH]c4ccccc34)[C@@](C(=O)OC)(c3cc4c(cc3OC)N(C=O)[C@H]3[C@@](O)(C(=O)OC)[C@H](OC(C)=O)[C@]5(CC)C=CCN6CC[C@]43[C@@H]65)C2)C1
- T/C (endpoint: mean survival time, dose: 0.02 mg/kg/injection, schedule: Q01DX010 (ip), vehicle: saline): 97 % of control
- T/C (endpoint: mean survival time, dose: 0.03 mg/kg/injection, schedule: Q01DX010 (ip), vehicle: saline): 86 % of control
- T/C (endpoint: mean survival time, dose: 0.05 mg/kg/injection, schedule: Q01DX010 (ip), vehicle: water): 100 % of control
- T/C (endpoint: mean survival time, dose: 0.1 mg/kg/injection, schedule: Q01DX010 (ip), vehicle: water): 156 % of control
- T/C (endpoint: mean survival time, dose: 0.13 mg/kg/injection, schedule: Q02DX008 (ip), vehicle: saline): 160 % of control and 259 % of control and 306 % of control
- T/C (endpoint: mean survival time, dose: 0.15 mg/kg/injection, schedule: Q## X004 (ip), vehicle: saline): 119 % of control and 181 % of control and 234 % of control
- T/C (endpoint: mean survival time, dose: 0.16 mg/kg/injection, schedule: Q## X032 (ip), vehicle: saline): 208 % of control
- T/C (endpoint: mean survival time, dose: 0.2 mg/kg/injection, schedule: Q01DX010 (ip), vehicle: water): 305 % of control
- T/C (endpoint: mean survival time, dose: 0.2 mg/kg/injection, schedule: Q02DX008 (ip), vehicle: saline): 221 % of control and 270 % of control and 290 % of control
- T/C (endpoint: mean survival time, dose: 0.22 mg/kg/injection, schedule: Q## X004 (ip), vehicle: saline): 231 % of control and 242 % of control and 270 % of control
- T/C (endpoint: mean survival time, dose: 0.24 mg/kg/injection, schedule: Q## X032 (ip), vehicle: saline): 187 % of control and 193 % of control and 212 % of control
- T/C (endpoint: mean survival time, dose: 0.3 mg/kg/injection, schedule: Q02DX008 (ip), vehicle: saline): 298 % of control and 302 % of control and 352 % of control
- T/C (endpoint: mean survival time, dose: 0.35 mg/kg/injection, schedule: Q## X004 (ip), vehicle: saline): 256 % of control and 273 % of control and 304 % of control
- T/C (endpoint: mean survival time, dose: 0.36 mg/kg/injection, schedule: Q## X032 (ip), vehicle: saline): 234 % of control and 241 % of control and 282 % of control
- T/C (endpoint: mean survival time, dose: 0.44 mg/kg/injection, schedule: Q02DX008 (ip), vehicle: saline): 154 % of control and 197 % of control and 358 % of control
- T/C (endpoint: mean survival time, dose: 0.53 mg/kg/injection, schedule: Q## X004 (ip), vehicle: saline): 270 % of control and 344 % of control and 366 % of control
- T/C (endpoint: mean survival time, dose: 0.54 mg/kg/injection, schedule: Q## X032 (ip), vehicle: saline): 274 % of control and 275 % of control and 335 % of control
- T/C (endpoint: mean survival time, dose: 0.8 mg/kg/injection, schedule: Q## X004 (ip), vehicle: saline): 283 % of control and 357 % of control
- T/C (endpoint: mean survival time, dose: 0.8 mg/kg/injection, schedule: Q## X032 (ip), vehicle: saline): 190 % of control and 218 % of control and 92 % of control
- T/C (endpoint: mean survival time, dose: 1.2 mg/kg/injection, schedule: Q## X004 (ip), vehicle: saline): 152 % of control
- T/C (endpoint: mean survival time, dose: 1.2 mg/kg/injection, schedule: Q## X032 (ip), vehicle: saline): 92 % of control
- T/C (endpoint: mean survival time, dose: 1.45 mg/kg/injection, schedule: Q01DX001 (ip), vehicle: saline): 188 % of control and 237 % of control
- T/C (endpoint: mean survival time, dose: 1.45 mg/kg/injection, schedule: Q## X001 (ip), vehicle: saline): 294 % of control
- T/C (endpoint: mean survival time, dose: 1.5 mg/kg/injection, schedule: Q01DX001 (ip), vehicle: saline): 159 % of control and 188 % of control and 212 % of control
- T/C (endpoint: mean survival time, dose: 1.8 mg/kg/injection, schedule: Q## X004 (ip), vehicle: saline): 100 % of control
- T/C (endpoint: mean survival time, dose: 2.9 mg/kg/injection, schedule: Q01DX001 (ip), vehicle: saline): 158 % of control
- T/C (endpoint: mean survival time, dose: 2.9 mg/kg/injection, schedule: Q## X001 (ip), vehicle: saline): 297 % of control
- T/C (endpoint: mean survival time, dose: 26.0 micrograms/kg/injection, schedule: Q01DX010 (ip), vehicle: saline): 123 % of control and 208 % of control
- T/C (endpoint: mean survival time, dose: 27.0 micrograms/kg/injection, schedule: Q01DX015 (ip), vehicle: saline): 167 % of control and 173 % of control
- T/C (endpoint: mean survival time, dose: 40.0 micrograms/kg/injection, schedule: Q01DX015 (ip), vehicle: saline): 161 % of control and 240 % of control
- T/C (endpoint: mean survival time, dose: 60.0 micrograms/kg/injection, schedule: Q01DX015 (ip), vehicle: saline): 221 % of control and 226 % of control
- T/C (endpoint: mean survival time, dose: 90.0 micrograms/kg/injection, schedule: Q01DX015 (ip), vehicle: saline): 215 % of control and 228 % of control and 260 % of control
- T/C (endpoint: mean survival time, dose: 135.0 micrograms/kg/injection, schedule: Q01DX015 (ip), vehicle: saline): 221 % of control and 281 % of control and 297 % of control
- T/C (endpoint: mean survival time, dose: 200.0 micrograms/kg/injection, schedule: Q01DX015 (ip), vehicle: saline): 196 % of control and 233 % of control and 340 % of control
- T/C (endpoint: mean survival time, dose: 300.0 micrograms/kg/injection, schedule: Q01DX010 (ip), vehicle: saline): 181 % of control and 240 % of control
- T/C (endpoint: mean survival time, dose: 300.0 micrograms/kg/injection, schedule: Q01DX015 (ip), vehicle: saline): 200 % of control

SMILES: CCC(CCC(C)C1CCC2C3CC=C4CC(O)CCC4(C)C3CCC12C)C(C)C (configuration not stated) (tested in a mixture with another compound)
- T/C (endpoint: mean survival time, dose: 12.0 mg/kg/injection, schedule: Q01DX010 (ip), vehicle: water): 102 % of control
- T/C (endpoint: mean survival time, dose: 25.0 mg/kg/injection, schedule: Q01DX010 (ip), vehicle: water): 109 % of control
- T/C (endpoint: mean survival time, dose: 25.0 mg/kg/injection, schedule: Q#A X020 (ip), vehicle: other): 87 % of control
- T/C (endpoint: mean survival time, dose: 50.0 mg/kg/injection, schedule: Q01DX010 (ip), vehicle: water): 93 % of control

SMILES: COCCOC
- T/C (endpoint: mean survival time, dose: 300.0 mg/kg/injection, schedule: Q01DX010 (ip), vehicle: saline): 100 % of control
- T/C (endpoint: mean survival time, dose: 450.0 mg/kg/injection, schedule: Q01DX010 (ip), vehicle: saline): 107 % of control
- T/C (endpoint: mean survival time, dose: 675.0 mg/kg/injection, schedule: Q01DX010 (ip), vehicle: saline): 103 % of control

SMILES: CC(O)CCc1ccc(OC(=O)c2ccccc2)cc1 (configuration not stated)
- T/C [1]: 89 % of control
- T/C [2]: 93 % of control
- T/C [3]: 89 % of control
- T/C [4]: 93 % of control

SMILES: COc1ccc2c(c1OC)CN1CCc3cc4c(cc3C1C2)OCO4 (configuration not stated)
- T/C [1]: 107 % of control
- T/C [2]: 92 % of control
- T/C [3]: 88 % of control
- T/C [4]: 100 % of control

SMILES: Nc1nc(F)nc2c1ncn2C1OC(CO)C(O)C1O (configuration not stated)
- T/C (endpoint: mean survival time, dose: 1.0 mg/kg/injection, schedule: Q01DX010 (ip), vehicle: saline): 110 % of control and 100 % of control
- T/C (endpoint: mean survival time, dose: 2.0 mg/kg/injection, schedule: Q01DX010 (ip), vehicle: saline): 103 % of control
- T/C (endpoint: mean survival time, dose: 4.0 mg/kg/injection, schedule: Q01DX010 (ip), vehicle: saline): 96 % of control
- T/C (endpoint: mean survival time, dose: 8.0 mg/kg/injection, schedule: Q01DX010 (ip), vehicle: saline): 92 % of control

SMILES: SCc1ccccn1
- T/C [5]: 107 % of control
- T/C [1]: 100 % of control
- T/C [2]: 115 % of control
- T/C [3]: 115 % of control

SMILES: Nc1c(Br)cc2c(c1Br)Cc1cc([N+](=O)[O-])ccc1-2
- T/C [6]: 115 % of control
- T/C [7]: 107 % of control and 110 % of control
- T/C [8]: 107 % of control
- T/C (endpoint: mean survival time, dose: 125.0 mg/kg/injection, schedule: Q01DX010 (ip), vehicle: saline): 110 % of control and 115 % of control
- T/C (endpoint: mean survival time, dose: 250.0 mg/kg/injection, schedule: Q01DX010 (ip), vehicle: saline): 107 % of control

SMILES: NCCc1ccccc1
- T/C [6]: 96 % of control
- T/C [7]: 92 % of control
- T/C [8]: 100 % of control

SMILES: Cc1cc(C)n(C(N)=O)n1
- T/C (endpoint: mean survival time, dose: 150.0 mg/kg/injection, schedule: Q01DX010 (ip), vehicle: water): 96 % of control
- T/C (endpoint: mean survival time, dose: 200.0 mg/kg/injection, schedule: Q01DX010 (ip), vehicle: water): 111 % of control

SMILES: Nc1nc(N)c2nc(CNc3ccc(C(=O)NC(CCC(=O)O)C(=O)O)cc3)cnc2n1 (configuration not stated)
- T/C (endpoint: mean survival time, dose: 25.0 micrograms/kg/injection, schedule: Q01DX010 (ip), vehicle: other): 109 % of control
- T/C (endpoint: mean survival time, dose: 50.0 micrograms/kg/injection, schedule: Q01DX010 (ip), vehicle: other): 113 % of control and 122 % of control
- T/C (endpoint: mean survival time, dose: 100.0 micrograms/kg/injection, schedule: Q01DX010 (ip), vehicle: other): 159 % of control
- T/C (endpoint: mean survival time, dose: 200.0 micrograms/kg/injection, schedule: Q01DX010 (ip), vehicle: other): 95 % of control and 100 % of control
- T/C (endpoint: median survival time, dose: 0.05 mg/kg/injection, schedule: Q01DX009 (ip), vehicle: sodium bicarbonate): 164 % of control
- T/C (endpoint: median survival time, dose: 0.1 mg/kg/injection, schedule: Q01DX009 (ip), vehicle: sodium bicarbonate): 93 % of control

SMILES: CN(C)/N=N/c1nc[nH]c1C(N)=O
- T/C (endpoint: mean survival time, dose: 6.25 mg/kg/injection, schedule: Q01DX010 (ip), vehicle: saline): 100 % of control
- T/C (endpoint: mean survival time, dose: 12.5 mg/kg/injection, schedule: Q01DX010 (ip), vehicle: saline): 107 % of control
- T/C [5]: 103 % of control
- T/C [1]: 107 % of control

SMILES: Clc1ncnc2nc[nH]c12
- T/C (endpoint: mean survival time, dose: 7.5 mg/kg/injection, schedule: Q01DX010 (ip), vehicle: saline): 106 % of control and 100 % of control
- T/C (endpoint: mean survival time, dose: 15.0 mg/kg/injection, schedule: Q01DX010 (ip), vehicle: saline): 94 % of control
- T/C (endpoint: mean survival time, dose: 30.0 mg/kg/injection, schedule: Q01DX010 (ip), vehicle: saline): 105 % of control
- T/C (endpoint: mean survival time, dose: 60.0 mg/kg/injection, schedule: Q01DX010 (ip), vehicle: saline): 105 % of control

SMILES: Cn1c(N)nc2nc[nH]c2c1=S
- T/C (endpoint: mean survival time, dose: 10.0 mg/kg/injection, schedule: Q01DX010 (ip), vehicle: saline): 100 % of control
- T/C (endpoint: mean survival time, dose: 20.0 mg/kg/injection, schedule: Q01DX010 (ip), vehicle: saline): 100 % of control
- T/C (endpoint: mean survival time, dose: 40.0 mg/kg/injection, schedule: Q01DX010 (ip), vehicle: saline): 96 % of control
- T/C (endpoint: mean survival time, dose: 80.0 mg/kg/injection, schedule: Q01DX010 (ip), vehicle: saline): 110 % of control
